Consider two compounds from patent US20250319054A1, “Synthetic Eicosanoid Analogues for the Treatment and Prevention of Diseases Associated with Increased GDF15 Plasma Concentration” (OMEICOS Therapeutics GmbH, priority 2021, published 2025).

Data set [1] has as its system GDF-15. The data set can be described thus: Clinical phase II study: GDF-15 plasma concentration (sandwich ELISA). Conditions: baseline to end-of-treatment (3 months); dose-dependent. Format: in vivo, human. Here is the method: (§1) In a clinical phase II study 119 patients with persistent atrial fibrillation were investigated with regard to the effect of treatment with Compound-02 (structure of general formula (VI)). The patients were divided into a placebo group and three treatment groups with different dosing of Compound-02. The low, medium and high dosing groups received an oral once daily dosing of 4 mg, 12 mg or 24 mg of Compound-02, respectively.
(§2) The study participants received an implantable cardiac monitor (ICM) at least one week prior to start of treatment with Compound-02. The treatment with Compound-02 was maintained for a total period of three months (i.e. Day 1 to Day 99) and started at least 1 week prior to direct current cardioversion (DCC) (see FIG. 1 for details of study protocol).
(§3) Plasma samples were taken from the patients at different study visits. Biomarkers were analyzed at baseline (V3) and at the end of treatment (V8). For 119 study participants complete sets of biomarkers could be obtained.
GDF-15 concentrations were measured in EDTA treated plasma samples with a solid phase sandwich ELISA (Human GDF-15 Quantikine ELISA kit, R&D Systems) using an immobilized mouse monoclonal anti-GDF-15 and a horseradish peroxidase-conjugated monoclonal anti-GDF-15 antibody. […] The reaction product is measured spectrophotometrically at 450 nm (Sunrise Absorbance Reader, TECAN).
(ELISA stands for enzyme-linked immunosorbent assay.)

The test system of data set [2] is IL-6. Put plainly: Clinical phase II study: IL-6 plasma concentration. Format: in vivo, human. The procedure: as §1, §2, §3
Data set [3] deals with PTX-3. Put plainly: Clinical phase II study: PTX-3 plasma concentration. Format: in vivo, human. Conditions: baseline to end-of-treatment (3 months); dose-dependent. The procedure: as §1, §2, §3
Data set [4] relates to patients with persistent atrial fibrillation. Put plainly: Clinical phase II study: safety. Format: in vivo, human. Conditions: oral once daily 4, 12 or 24 mg, three months. The procedure:
as §1, §2

In data set [5] the test system is patients suffering from CAD. Conditions: CANTOS study patients with reduced circulating IL-6 levels; cited from earlier work.
Data set [6] relates to IL-6. The conditions noted are these: CANTOS study, 4833 CAD patients; cited from earlier work.

In the case of `CNC(=O)C(=O)NCCCC/C=C\CCCCCCCOCC(=O)O` [Compound-02], the “reduction of GDF-15 plasma concentration vs. placebo” value in data set [1] turned out to be 30%. In data set [2] (baseline to end-of-treatment (3 months), dose-dependent), the “reduction of IL-6 plasma concentration vs. placebo” value turned out to be 30%. Also, the “reduction of IL-6 levels in response to treatment” value in data set [2] (clinical study) is 25-40%. Also, in data set [3], the “reduction of PTX-3 plasma concentration vs. placebo” value was 55%. Also, in data set [4], the “changes in the ECG or other types of arrhythmias” value is listed as “no changes” and the safety profile result is “good safety profile”.

Turning to “Canakinumab: anti-IL-1β antibody that modulates the IL-6 pathway”, in data set [5], the “reduction in major adverse cardiac events (MACE) compared to the placebo group” value is recorded as 32%. Besides, the “circulating IL-6 levels” value in data set [6] is reported as “reduces circulating IL-6 levels”.
